Measured values published in ChEMBL document CHEMBL1147064 (Proc Natl Acad Sci U S A, 2007).

Experiments:
[1] = Toxicity against mouse Neuro2a cells at =>5 uM; format: cell-based; conditions: n2a
[2] = target: Botulinum neurotoxin type A (Clostridium botulinum, UniProt P0DPI0)
Sequence of Botulinum neurotoxin type A (P0DPI0 2-448 limits assumed): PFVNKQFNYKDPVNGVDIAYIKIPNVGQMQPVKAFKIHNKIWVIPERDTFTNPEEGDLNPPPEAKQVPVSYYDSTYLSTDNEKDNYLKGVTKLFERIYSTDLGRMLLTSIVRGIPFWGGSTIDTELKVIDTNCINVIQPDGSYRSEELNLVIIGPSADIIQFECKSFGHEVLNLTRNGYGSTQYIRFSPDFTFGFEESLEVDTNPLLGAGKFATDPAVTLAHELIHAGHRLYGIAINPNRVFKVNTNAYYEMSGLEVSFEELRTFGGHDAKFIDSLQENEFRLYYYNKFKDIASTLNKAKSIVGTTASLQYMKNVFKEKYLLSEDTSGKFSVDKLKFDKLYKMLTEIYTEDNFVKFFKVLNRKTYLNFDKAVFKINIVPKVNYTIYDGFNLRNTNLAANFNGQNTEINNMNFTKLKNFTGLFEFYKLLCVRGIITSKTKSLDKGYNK

SMILES | Activity [1] | IC50 [2] [µM]
O=C(/C=C/c1ccc(Cl)cc1Cl)NO [CINNAMIC ACID HYDROXAMATE] | Toxic | –
CCC1CN(C(=O)/C=C/c2ccccc2)CC(=O)N1Cc1ccc(C)cc1 (stereo not drawn) | – | 12.5
COc1ccc(CCNC(=O)CN(CC(=O)N[C@H]2C[C@@H]2c2ccccc2)C(=O)Cn2c(C(=O)N[C@H]3CCCC[C@@H]3NC(=O)c3cc4ccccc4n3CC(=O)N(CC(=O)NCCc3ccc(OC)cc3)CC(=O)N[C@@H]3C[C@H]3c3ccccc3)cc3ccccc32)cc1 | – | 7.6
